Read-outs that look alike come from different tables or passages of the source.
Legend:
[1] = target: T1, human Nav1.7 channels stably expressed in HEK 293 cells (Homo sapiens, UniProt Q15858); experiment: PatchXpress 7000 automated patch-clamp, sodium current; assay type: cell-based; conditions: 22° C.
T1 construct: expressed in transfected cells
Procedure, shortened: (§1)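 IC50 values came from Hill-equation fits of rundown-corrected inhibition. PatchXpress recordings at 22° C held cells 20 mV negative to V0.5 inact and applied 10 Hz trains of 30 ms steps to −20 mV (Nav1.7) or an 8000 ms prepulse 7 mV positive to V0.5 inact. […]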

[2] = target: T2, human Nav1.5 channels stably expressed in HEK 293 cells (Homo sapiens, UniProt Q14524); experiment: as above; assay type: cell-based; conditions: selectivity over Nav1.5
T2 construct: expressed in transfected cells
T2 sequence (Q14524 whole entry): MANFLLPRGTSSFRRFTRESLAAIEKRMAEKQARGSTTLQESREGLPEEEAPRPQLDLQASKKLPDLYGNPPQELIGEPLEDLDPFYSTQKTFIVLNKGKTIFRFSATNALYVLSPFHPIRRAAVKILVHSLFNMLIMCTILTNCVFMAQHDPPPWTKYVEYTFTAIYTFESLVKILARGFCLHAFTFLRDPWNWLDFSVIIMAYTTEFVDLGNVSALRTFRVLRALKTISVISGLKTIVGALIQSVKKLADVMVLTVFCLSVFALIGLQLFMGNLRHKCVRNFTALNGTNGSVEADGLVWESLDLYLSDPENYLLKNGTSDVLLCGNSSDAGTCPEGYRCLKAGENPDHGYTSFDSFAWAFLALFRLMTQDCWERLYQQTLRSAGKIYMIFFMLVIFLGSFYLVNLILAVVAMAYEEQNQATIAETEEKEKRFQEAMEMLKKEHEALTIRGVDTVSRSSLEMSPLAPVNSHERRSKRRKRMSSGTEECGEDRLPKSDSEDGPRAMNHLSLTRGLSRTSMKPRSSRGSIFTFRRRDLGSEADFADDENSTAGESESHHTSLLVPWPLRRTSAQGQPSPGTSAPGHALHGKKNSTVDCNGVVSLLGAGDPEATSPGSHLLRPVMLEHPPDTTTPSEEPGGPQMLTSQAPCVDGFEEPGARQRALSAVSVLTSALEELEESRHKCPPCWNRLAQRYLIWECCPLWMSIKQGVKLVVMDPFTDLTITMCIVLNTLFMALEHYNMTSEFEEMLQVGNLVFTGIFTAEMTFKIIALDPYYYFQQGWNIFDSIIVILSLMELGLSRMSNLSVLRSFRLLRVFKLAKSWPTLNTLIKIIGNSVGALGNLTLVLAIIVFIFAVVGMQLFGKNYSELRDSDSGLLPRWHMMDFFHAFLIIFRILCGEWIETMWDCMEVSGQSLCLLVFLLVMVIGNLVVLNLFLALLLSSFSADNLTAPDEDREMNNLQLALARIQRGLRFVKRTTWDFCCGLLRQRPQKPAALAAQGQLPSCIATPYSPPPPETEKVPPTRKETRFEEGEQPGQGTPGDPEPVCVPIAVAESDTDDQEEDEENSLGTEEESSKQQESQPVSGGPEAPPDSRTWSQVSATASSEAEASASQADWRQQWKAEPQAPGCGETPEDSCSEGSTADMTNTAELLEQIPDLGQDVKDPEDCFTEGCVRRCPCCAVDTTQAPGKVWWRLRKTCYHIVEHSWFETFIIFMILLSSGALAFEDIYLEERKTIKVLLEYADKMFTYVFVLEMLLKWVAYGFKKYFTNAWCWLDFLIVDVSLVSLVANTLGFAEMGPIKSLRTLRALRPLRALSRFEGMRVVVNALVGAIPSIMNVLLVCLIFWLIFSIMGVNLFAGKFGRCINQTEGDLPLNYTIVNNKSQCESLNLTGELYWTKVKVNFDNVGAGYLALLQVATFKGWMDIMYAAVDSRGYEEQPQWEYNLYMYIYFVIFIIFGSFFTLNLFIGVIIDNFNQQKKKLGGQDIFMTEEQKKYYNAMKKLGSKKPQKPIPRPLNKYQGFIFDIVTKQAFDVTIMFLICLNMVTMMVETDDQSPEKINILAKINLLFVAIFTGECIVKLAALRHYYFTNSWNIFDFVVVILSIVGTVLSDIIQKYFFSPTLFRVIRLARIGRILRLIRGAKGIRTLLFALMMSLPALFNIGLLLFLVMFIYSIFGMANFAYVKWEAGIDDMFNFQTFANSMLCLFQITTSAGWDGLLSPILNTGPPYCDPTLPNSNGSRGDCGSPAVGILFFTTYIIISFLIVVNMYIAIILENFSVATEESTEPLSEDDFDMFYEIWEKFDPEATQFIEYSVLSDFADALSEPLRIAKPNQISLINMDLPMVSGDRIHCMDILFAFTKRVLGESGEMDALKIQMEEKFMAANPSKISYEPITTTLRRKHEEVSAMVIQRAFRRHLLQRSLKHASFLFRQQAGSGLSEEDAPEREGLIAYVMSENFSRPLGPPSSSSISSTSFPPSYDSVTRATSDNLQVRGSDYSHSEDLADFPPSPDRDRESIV
Procedure, shortened: as §1

[3] = read-out: potency for the Nav 1.7 sodium ion channel (as measured by PatchXpress)

T1 sequence (Q15858 whole entry): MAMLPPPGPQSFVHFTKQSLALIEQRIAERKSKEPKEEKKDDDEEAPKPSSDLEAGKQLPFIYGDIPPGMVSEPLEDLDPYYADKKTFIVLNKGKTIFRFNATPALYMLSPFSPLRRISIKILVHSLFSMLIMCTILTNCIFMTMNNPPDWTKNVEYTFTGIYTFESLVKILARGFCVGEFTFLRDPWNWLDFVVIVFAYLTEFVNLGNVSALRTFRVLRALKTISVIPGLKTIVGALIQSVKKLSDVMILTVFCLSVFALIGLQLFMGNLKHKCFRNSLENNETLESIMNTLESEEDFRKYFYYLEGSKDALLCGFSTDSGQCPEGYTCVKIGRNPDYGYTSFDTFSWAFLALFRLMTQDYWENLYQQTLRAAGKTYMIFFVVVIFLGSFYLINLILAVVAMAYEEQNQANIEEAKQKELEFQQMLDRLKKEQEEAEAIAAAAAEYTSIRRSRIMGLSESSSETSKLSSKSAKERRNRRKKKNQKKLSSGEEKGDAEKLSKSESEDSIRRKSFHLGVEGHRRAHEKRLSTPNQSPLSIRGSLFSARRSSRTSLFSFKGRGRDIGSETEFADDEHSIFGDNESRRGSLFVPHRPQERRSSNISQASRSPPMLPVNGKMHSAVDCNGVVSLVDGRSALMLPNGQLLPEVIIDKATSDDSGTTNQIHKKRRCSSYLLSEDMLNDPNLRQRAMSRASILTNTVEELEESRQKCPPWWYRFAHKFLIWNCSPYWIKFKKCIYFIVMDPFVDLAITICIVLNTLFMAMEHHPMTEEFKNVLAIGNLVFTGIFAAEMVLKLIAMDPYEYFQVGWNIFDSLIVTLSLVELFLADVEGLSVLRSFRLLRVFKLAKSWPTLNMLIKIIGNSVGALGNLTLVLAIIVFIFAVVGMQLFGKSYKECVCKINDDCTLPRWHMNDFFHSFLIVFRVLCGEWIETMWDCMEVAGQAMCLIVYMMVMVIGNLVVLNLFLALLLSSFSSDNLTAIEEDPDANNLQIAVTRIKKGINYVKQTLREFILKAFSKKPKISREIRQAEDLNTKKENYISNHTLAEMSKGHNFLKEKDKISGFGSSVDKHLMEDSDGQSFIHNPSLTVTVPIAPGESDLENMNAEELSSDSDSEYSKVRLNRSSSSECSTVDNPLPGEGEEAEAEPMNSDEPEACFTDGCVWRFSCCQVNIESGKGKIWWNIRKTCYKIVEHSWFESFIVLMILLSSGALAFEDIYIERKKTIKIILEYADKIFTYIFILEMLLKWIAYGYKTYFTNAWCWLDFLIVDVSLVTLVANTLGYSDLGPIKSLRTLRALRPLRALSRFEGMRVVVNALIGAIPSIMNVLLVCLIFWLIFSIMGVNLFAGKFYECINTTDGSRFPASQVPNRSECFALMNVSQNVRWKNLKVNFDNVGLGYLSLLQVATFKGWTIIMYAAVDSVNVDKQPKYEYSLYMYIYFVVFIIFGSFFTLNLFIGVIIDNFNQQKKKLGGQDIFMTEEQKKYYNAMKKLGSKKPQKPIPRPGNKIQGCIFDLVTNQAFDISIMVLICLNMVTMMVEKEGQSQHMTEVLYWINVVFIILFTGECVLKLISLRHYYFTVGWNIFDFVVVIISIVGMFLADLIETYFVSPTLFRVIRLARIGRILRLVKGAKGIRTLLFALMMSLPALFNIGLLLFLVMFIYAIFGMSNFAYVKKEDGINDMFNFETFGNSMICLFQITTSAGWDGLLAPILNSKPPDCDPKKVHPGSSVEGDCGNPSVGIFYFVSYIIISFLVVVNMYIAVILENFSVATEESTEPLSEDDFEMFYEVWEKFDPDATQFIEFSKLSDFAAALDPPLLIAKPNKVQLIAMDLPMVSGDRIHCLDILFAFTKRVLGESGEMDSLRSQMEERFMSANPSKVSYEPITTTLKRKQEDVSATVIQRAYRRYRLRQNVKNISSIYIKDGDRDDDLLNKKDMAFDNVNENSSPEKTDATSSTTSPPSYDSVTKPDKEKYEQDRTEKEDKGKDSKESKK

| SMILES | IC50 [1, 3] | ratio of Nav 1.5:Nav 1.7 potency, determined by PatchXpress measurement [2] | IC50 ([1]; potency for the Nav 1.7 sodium ion channel (as measured by PatchXpress)) |
| --- | --- | --- | --- |
| O=c1oc2cc(S(=O)(=O)Nc3ncns3)c(F)cc2n1Cc1cccc2cncn12 [Compound 11-12, 5-fluoro-3-(imidazo[1,5-a]pyridin-5-ylmethyl)-2-oxo-N-1,2,4-thiadiazol-5-yl-2,3-dihydro-1,3-benzoxazole-6-sulfonamide] | 81 nM | 368 | – |
| NC1CCc2cccc(Cn3c(=O)oc4cc(S(=O)(=O)Nc5ncns5)ccc43)c2C1 (single isomer, unassigned) [Compound 23-10, (R or S)-3-[(7-amino-5,6,7,8-tetrahydronaphthalen-1-yl)methyl]-2-oxo-N-1,2,4-thiadiazol-5-yl-2,3-dihydro-1,3-benzoxazole-6-sulfonamide] | 179 nM | 167 | – |
| C[C@H](c1ccccc1C1=CCNCC1)n1c(=O)oc2cc(S(=O)(=O)Nc3ncns3)c(Cl)cc21.Cl [Compound 34-6, (R)-5-chloro-2-oxo-3-(1-(2-(1,2,3,6-tetrahydropyridin-4-yl)phenyl)ethyl)-N-(1,2,4-thiadiazol-5-yl)-2,3-dihydrobenzo[d]oxazole-6-sulfonamide hydrochloride] | – | 1200 | 25 nM |
| C[C@H](c1ccccc1C#CCC1CCCN1)n1c(=O)oc2cc(S(=O)(=O)Nc3ncns3)c(F)cc21 (stereo partly drawn) [Compound 17-13, 5-fluoro-2-oxo-3-{(1R)-1-[2-(3-pyrrolidin-2-ylprop-1-yn-1-yl)phenyl]ethyl}-N-1,2,4-thiadiazol-5-yl-2,3-dihydro-1,3-benzoxazole-6-sulfonamide] | 34 nM | 789 | – |
| C[C@H](c1cccc2c1CNCC2)n1c(=O)oc2cc(S(=O)(=O)Nc3nccs3)ccc21 [Compound 42-1, (R)-2-oxo-3-(1-(1,2,3,4-tetrahydroisoquinolin-8-yl)ethyl)-N-(thiazol-2-yl)-2,3-dihydrobenzo[d]oxazole-6-sulfonamide] | 30 nM | 1017 | – |
| CC(c1cccc2c1CNCC2)n1c(=O)oc2cc(S(=O)(=O)Nc3ncns3)c(Cl)cc21 (racemic) [Compound 34-7, (+/−)-5-chloro-2-oxo-3-[1-(1,2,3,4-tetrahydroisoquinolin-8-yl)ethyl]-N-1,2,4-thiadiazol-5-yl-2,3-dihydro-1,3-benzoxazole-6-sulfonamide] | 565 nM | 129 | – |
| O=c1oc2cc(S(=O)(=O)Nc3nccs3)c(F)cc2n1Cc1cccc(Br)c1 [Compound 43-6, 3-(3-bromobenzyl)-5-fluoro-2-oxo-N-1,3-thiazol-2-yl-2,3-dihydro-1,3-benzoxazole-6-sulfonamide] | 162 nM | 80 | – |
| C[C@H](c1ccccc1C#C[C@H]1CCCN1)n1c(=O)oc2cc(S(=O)(=O)Nc3ncns3)c(F)cc21 [Compound 17-21, 5-fluoro-2-oxo-3-[(1R)-1-{2-[(2R)-pyrrolidin-2-ylethynyl]phenyl}ethyl]-N-1,2,4-thiadiazol-5-yl-2,3-dihydro-1,3-benzoxazole-6-sulfonamide] | 13 nM | 2344 | – |
| CC(N)C#Cc1ccccc1[C@@H](C)n1c(=O)oc2cc(S(=O)(=O)Nc3ncns3)c(F)cc21 (stereo partly drawn) [Compound 17-19, 3-{(1R)-1-[2-(3-aminobut-1-yn-1-yl)phenyl]ethyl}-5-fluoro-2-oxo-N-1,2,4-thiadiazol-5-yl-2,3-dihydro-1,3-benzoxazole-6-sulfonamide] | 22 nM | 1390 | – |
| Nc1cc2cccc(Cn3c(=O)oc4cc(S(=O)(=O)Nc5ncns5)c(F)cc43)c2cn1 [Compound 27-5, 3-((3-aminoisoquinolin-8-yl)methyl)-5-fluoro-2-oxo-N-(1,2,4-thiadiazol-5-yl)-2,3-dihydrobenzo[d]oxazole-6-sulfonamide] | 67 nM | 450 | – |
| C[C@H](c1ccccc1C#CCNS(C)(=O)=O)n1c(=O)oc2cc(S(=O)(=O)Nc3ncns3)c(Cl)cc21 [Compound 36-6, 5-chloro-3-[(1R)-1-(2-{3-[(methylsulfonyl)amino]prop-1-yn-1-yl}phenyl)ethyl]-2-oxo-N-1,2,4-thiadiazol-5-yl-2,3-dihydro-1,3-benzoxazole-6-sulfonamide] | 121 nM | 175 | – |
| CC(c1cccc(-c2ccnc(CO)c2)c1)n1c(=O)oc2cc(S(=O)(=O)Nc3ncns3)c(F)cc21 (stereo not shown) [Compound 29-3, 5-fluoro-3-(1-{3-[2-(hydroxymethyl)pyridin-4-yl]phenyl}ethyl)-2-oxo-N-1,2,4-thiadiazol-5-yl-2,3-dihydro-1,3-benzoxazole-6-sulfonamide] | 216 nM | 61 | – |
| CC(c1cccc2c1CN(S(C)(=O)=O)CC2)n1c(=O)oc2cc(S(=O)(=O)Nc3ncns3)c(Cl)cc21 (racemic) [Compound 36-2, (+/−)-5-chloro-3-{1-[2-(methylsulfonyl)-1,2,3,4-tetrahydroisoquinolin-8-yl]ethyl}-2-oxo-N-1,2,4-thiadiazol-5-yl-2,3-dihydro-1,3-benzoxazole-6-sulfonamide] | 334 nM | 13 | – |
| CC1(C)CCC(n2c(=O)oc3cc(S(=O)(=O)Nc4ncns4)c(F)cc32)c2ccccc21 (stereo not shown) [Compound 39-12, 3-(4,4-dimethyl-1,2,3,4-tetrahydronaphthalen-1-yl)-5-fluoro-2-oxo-N-1,2,4-thiadiazol-5-yl-2,3-dihydro-1,3-benzoxazole-6-sulfonamide] | 159 nM | 38 | – |
| O=c1oc2cc(S(=O)(=O)Nc3ncns3)c(F)cc2n1[C@H]1CC2(CCC2)Oc2ccc(F)cc21 [Compound 39-17, 5-fluoro-3-[(4S)-6-fluoro-3,4-dihydrospiro[chromene-2,1′-cyclobutan]-4-yl]-2-oxo-N-1,2,4-thiadiazol-5-yl-2,3-dihydro-1,3-benzoxazole-6-sulfonamide] | 53 nM | 115 | – |
| O=c1oc2cc(S(=O)(=O)Nc3ncns3)c(F)cc2n1Cc1cccc2c1CC(N1CCCC1C(F)(F)F)CC2 (racemic) [Compound 23-11, (+/−)-5-fluoro-2-oxo-N-1,2,4-thiadiazol-5-yl-3-({7-[2-(trifluoromethyl)pyrrolidin-1-yl]-5,6,7,8-tetrahydronaphthalen-1-yl}methyl)-2,3-dihydro-1,3-benzoxazole-6-sulfonamide] | 115 nM | 73 | – |
| C[C@H](c1cccc2c1CC(N)CC2)n1c(=O)oc2cc(S(=O)(=O)Nc3ncns3)c(F)cc21 (single isomer, unassigned) [Compound 23-25, (R or S)-3-[(1R)-1-(7-amino-5,6,7,8-tetrahydronaphthalen-1-yl)ethyl]-5-fluoro-2-oxo-N-1,2,4-thiadiazol-5-yl-2,3-dihydro-1,3-benzoxazole-6-sulfonamide] | 15 nM | 203 | – |
| C[C@H](c1ccccc1C#CC1(O)CCCC1)n1c(=O)oc2cc(S(=O)(=O)Nc3ncns3)c(F)cc21 [Compound 17-3, 5-fluoro-3-[(1R)-1-{2-[(1-hydroxycyclopentyl)ethynyl]phenyl}ethyl]-2-oxo-N-1,2,4-thiadiazol-5-yl-2,3-dihydro-1,3-benzoxazole-6-sulfonamide] | 172 nM | 97 | – |
| C[C@H](c1ccccc1C#CCN)n1c(=O)oc2cc(S(=O)(=O)Nc3ncns3)c(Cl)cc21 [Compound 34-8, 3-{(1R)-1-[2-(3-aminoprop-1-yn-1-yl)phenyl]ethyl}-5-chloro-2-oxo-N-1,2,4-thiadiazol-5-yl-2,3-dihydro-1,3-benzoxazole-6-sulfonamide] | 40 nM | 40 | – |
| O=c1oc2cc(S(=O)(=O)Nc3ncns3)c(F)cc2n1Cc1cccc2c1CC(NCc1ccccc1)CC2 (racemic) [Compound 23-23, (+/−)-3-{[7-(benzylamino)-5,6,7,8-tetrahydronaphthalen-1-yl]methyl}-5-fluoro-2-oxo-N-1,2,4-thiadiazol-5-yl-2,3-dihydro-1,3-benzoxazole-6-sulfonamide] | 24 nM | 502 | – |
| Cc1n[nH]cc1-c1cccc([C@@H](C)n2c(=O)oc3cc(S(=O)(=O)Nc4nccs4)c(F)cc32)c1 [Compound 43-24, 5-fluoro-3-{(1R)-1-[3-(3-methyl-1H-pyrazol-4-yl)phenyl]ethyl}-2-oxo-N-1,3-thiazol-2-yl-2,3-dihydro-l,3-benzoxazole-6-sulfonamide] | 103 nM | 33 | – |
| O=c1oc2cc(S(=O)(=O)Nc3nccs3)c(F)cc2n1Cc1cccc2c1CNCC2F (single isomer, unassigned) [Compound 43-27, (R or S)-5-fluoro-3-[(4-fluoro-1,2,3,4-tetrahydroisoquinolin-8-yl)methyl]-2-oxo-N-1,3-thiazol-2-yl-2,3-dihydro-1,3-benzoxazole-6-sulfonamide] | 106 nM | 282 | – |
| CC(c1cccc2c1CC(N)CC2)n1c(=O)oc2cc(S(=O)(=O)Nc3ncns3)c(F)cc21 (racemic) [Compound 23-24, (R,R and S,R) or (R,S and S,S)-3-[1-(7-amino-5,6,7,8-tetrahydronaphthalen-1-yl)ethyl]-5-fluoro-2-oxo-N-1,2,4-thiadiazol-5-yl-2,3-dihydro-1,3-benzoxazole-6-sutfonamide] | 15 nM | 1119 | – |
